2 compounds from publication PMC6399333, “Synthetic energy sensor AMPfret deciphers adenylate-dependent AMPK activation mechanism” (Nature Communications, 2019) can be followed below.

In experiment [1] the target is T1, AMPK γ1 subunit (in the α2β2γ1 AMPfret heterotrimer) (Rattus norvegicus, UniProt P80385).
T1 construct: gene Prkag1; with AMPK α2 (PRKAA2, Rattus norvegicus) and AMPK β2 (PRKAB2, Homo sapiens)
Nature of the experiment: fluorometric FRET titration of the purified sensor, single-site fit. The format is binding.

The target in experiment [2] is T1, AMPK γ1 subunit (in the α2β2γ1 AMPfret heterotrimer). Nature of the experiment: fluorometric FRET titration of the purified sensor, single-site fit; also allosteric activation in kinase assay. The class given is binding. An excerpt:
fluorometric FRET titration of the purified sensor, single-site fit; also allosteric activation in kinase assay on AMPK γ1 subunit (in the α2β2γ1 AMPfret heterotrimer) | AMPfret reports binding of AMP (in absence of ATP) at one or more binding sites

T1 sequence (P80385 whole entry): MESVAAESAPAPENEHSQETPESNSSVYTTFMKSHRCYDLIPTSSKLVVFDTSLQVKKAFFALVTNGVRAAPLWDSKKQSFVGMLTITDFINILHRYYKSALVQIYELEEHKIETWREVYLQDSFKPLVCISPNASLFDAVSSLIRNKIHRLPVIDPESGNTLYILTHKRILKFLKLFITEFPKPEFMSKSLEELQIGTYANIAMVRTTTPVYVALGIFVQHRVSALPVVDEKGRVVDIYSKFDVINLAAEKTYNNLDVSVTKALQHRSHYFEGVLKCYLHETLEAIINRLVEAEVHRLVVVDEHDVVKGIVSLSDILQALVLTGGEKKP
T1 sequence (Q09137 whole entry partner): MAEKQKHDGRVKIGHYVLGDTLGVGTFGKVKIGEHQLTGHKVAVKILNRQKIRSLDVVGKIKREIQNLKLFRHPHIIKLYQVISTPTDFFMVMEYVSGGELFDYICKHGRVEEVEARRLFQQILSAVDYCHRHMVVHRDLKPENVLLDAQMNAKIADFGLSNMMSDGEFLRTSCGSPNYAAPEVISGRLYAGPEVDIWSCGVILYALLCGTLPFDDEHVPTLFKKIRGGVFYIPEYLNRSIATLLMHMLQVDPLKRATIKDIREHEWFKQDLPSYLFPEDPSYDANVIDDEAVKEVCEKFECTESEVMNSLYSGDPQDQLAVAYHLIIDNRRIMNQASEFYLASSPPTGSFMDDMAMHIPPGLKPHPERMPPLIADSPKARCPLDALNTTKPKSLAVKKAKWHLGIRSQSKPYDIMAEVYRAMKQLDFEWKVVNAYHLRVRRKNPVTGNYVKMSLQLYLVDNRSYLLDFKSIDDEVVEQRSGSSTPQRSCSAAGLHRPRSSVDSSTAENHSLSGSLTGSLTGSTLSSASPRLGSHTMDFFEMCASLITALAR
T1 sequence (O43741 whole entry partner): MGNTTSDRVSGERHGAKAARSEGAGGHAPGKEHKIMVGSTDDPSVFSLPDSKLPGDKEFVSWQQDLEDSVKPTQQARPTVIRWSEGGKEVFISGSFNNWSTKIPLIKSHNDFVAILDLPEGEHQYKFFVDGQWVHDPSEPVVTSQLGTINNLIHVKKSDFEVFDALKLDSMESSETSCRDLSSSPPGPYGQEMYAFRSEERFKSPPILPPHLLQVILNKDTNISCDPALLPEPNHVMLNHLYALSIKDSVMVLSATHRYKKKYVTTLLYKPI

As usually defined, the Kd is the free concentration of one partner at which half of the binding sites on the other are occupied at equilibrium, for simple one-to-one binding. Lower therefore signals tighter binding. Turning to `Nc1ncnc2c1ncn2[C@@H]1O[C@H](COP(=O)(O)OP(=O)(O)O)[C@@H](O)[C@H]1O` [ADP], the Kd in experiment [1] was 7.5 µM. In other words, the single-digit micromolar range.
As for `Nc1ncnc2c1ncn2[C@@H]1O[C@H](COP(=O)(O)O)[C@@H](O)[C@H]1O` [AMP], the Kd in experiment [2] is approximately 1.5 µM.
